Assay results from patent US12065436B2, “Cardiac sarcomere inhibitors” (Cytokinetics, Inc., priority 2018, dated 2024).

Target: bovine cardiac myofibrils (full-length cardiac myosin ATPase in the native sarcomere) (Bos taurus (Bovine), UniProt Q9BE39)
Test: Skinned bovine cardiac myofibril ATPase assay (PK/LDH-coupled)
Format: biochemical
Details: Ca2+ activating to 75% of maximal rate; for CDMF75 IC15: concentration giving 15% inhibition; for IC50: read-out: CDMF75 IC50
Experimental: To evaluate the effect of compounds on the ATPase activity of full-length cardiac myosin in the context of the native sarcomere, skinned myofibril assays were performed. Bovine cardiac myofibrils were obtained by homogenizing bovine cardiac left ventricular tissue in the presence of a detergent such as triton X-100. Such treatment removes membranes and a majority of the soluble cytoplasmic proteins but leaves intact the cardiac sarcomeric acto-myosin apparatus. Myofibril preparations retain the ability to hydrolyze ATP in an Ca^2+ regulated manner. ATPase activities of such myofibril preparations in the presence and absence of compounds were assayed at Ca^2+ concentrations activating to a defined fraction of the maximal rate (i.e., 25%, 75%). Small molecule agents were assessed for their ability to inhibit the steady-state ATPase activity of bovine cardiac myofibrils using pyruvate kinase and lactate dehydrogenase (PK/LDH)-coupled enzyme system. This assay regenerates myosin-produced ADP into ATP by oxidizing NADH, producing an absorbance change at 340 nm. Prior to testing small molecule agents, the bovine cardiac myofibrils were assessed for their calcium responsiveness and the calcium concentration that achieves either a 50% (pCa50) or 75% (pCa75) activation of the myofibril system was chosen as the final condition for assessing the inhibitory activity of the small molecule agents. All enzymatic activity was measured in a buffered solution containing 12 mM PIPES (piperazine-N,N′-bis(2-ethanesulfonic acid), 2 mM magnesium chloride at pH 6.8 (PM 12 buffer). Final assay conditions were 1 mg/mL of bovine cardiac myofibrils, 4 U/mL pyruvate kinase, 6 U/mL lactate dehydrogenase, 50 μM ATP, 0.1 mg/mL BSA (bovine serum albumin), 10 ppm antifoam, 1 mM DTT, 0.5 mM NADH, 1.5 mM PEP, 0.6 mM EGTA, and an amount of CaCl2) sufficient to achieve either 50% or 75% activation of the myofibril ATPase activity.

bovine cardiac myofibrils (full-length cardiac myosin ATPase in the native sarcomere), sequence (Q9BE39 whole entry): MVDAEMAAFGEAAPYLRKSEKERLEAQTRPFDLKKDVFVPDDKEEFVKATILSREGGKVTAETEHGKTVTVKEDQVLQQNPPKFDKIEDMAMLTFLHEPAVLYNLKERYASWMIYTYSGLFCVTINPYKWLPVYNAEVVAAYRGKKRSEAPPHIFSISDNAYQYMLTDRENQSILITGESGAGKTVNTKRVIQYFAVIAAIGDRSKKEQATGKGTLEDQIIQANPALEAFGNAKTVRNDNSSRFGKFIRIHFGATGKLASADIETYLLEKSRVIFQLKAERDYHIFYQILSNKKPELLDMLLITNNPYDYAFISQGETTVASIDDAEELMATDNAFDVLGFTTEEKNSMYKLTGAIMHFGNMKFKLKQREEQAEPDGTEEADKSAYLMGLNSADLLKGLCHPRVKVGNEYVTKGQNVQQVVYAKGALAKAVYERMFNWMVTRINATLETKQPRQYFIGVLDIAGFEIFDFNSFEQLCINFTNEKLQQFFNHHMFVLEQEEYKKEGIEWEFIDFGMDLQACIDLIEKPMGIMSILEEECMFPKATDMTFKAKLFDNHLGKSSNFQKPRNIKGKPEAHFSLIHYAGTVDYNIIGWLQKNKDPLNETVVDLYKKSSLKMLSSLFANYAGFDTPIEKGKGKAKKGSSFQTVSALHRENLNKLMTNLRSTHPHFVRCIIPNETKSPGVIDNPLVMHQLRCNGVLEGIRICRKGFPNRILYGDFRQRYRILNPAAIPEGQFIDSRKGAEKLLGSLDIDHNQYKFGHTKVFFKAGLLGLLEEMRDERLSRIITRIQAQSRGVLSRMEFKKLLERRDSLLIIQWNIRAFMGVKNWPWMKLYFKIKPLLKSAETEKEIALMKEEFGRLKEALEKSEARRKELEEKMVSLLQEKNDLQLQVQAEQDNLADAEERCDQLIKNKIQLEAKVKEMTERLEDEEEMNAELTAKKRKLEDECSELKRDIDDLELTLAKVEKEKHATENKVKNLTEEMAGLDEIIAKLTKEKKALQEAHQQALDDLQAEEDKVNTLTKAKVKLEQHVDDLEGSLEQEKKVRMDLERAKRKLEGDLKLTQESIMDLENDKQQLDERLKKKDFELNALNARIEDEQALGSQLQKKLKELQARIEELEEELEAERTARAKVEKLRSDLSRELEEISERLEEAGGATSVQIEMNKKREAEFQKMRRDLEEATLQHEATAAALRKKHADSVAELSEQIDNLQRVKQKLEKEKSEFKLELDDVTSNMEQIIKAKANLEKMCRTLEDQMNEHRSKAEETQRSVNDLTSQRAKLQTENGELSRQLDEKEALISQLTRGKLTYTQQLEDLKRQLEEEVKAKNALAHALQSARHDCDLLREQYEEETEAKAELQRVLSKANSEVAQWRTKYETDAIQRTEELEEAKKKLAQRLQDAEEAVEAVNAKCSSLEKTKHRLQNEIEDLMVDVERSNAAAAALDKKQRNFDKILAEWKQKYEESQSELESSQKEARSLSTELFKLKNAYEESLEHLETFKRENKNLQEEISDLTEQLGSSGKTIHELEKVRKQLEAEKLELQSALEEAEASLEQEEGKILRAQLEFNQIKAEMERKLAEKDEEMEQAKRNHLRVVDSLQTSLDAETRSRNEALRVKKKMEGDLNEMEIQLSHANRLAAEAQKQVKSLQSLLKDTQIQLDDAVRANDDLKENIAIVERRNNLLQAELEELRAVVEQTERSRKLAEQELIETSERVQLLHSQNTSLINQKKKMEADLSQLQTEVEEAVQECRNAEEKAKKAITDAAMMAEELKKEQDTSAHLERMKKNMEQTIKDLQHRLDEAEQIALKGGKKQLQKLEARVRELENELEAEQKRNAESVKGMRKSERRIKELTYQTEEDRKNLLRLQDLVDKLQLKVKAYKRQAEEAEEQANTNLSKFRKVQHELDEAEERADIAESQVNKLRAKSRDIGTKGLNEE
bovine cardiac myofibrils (full-length cardiac myosin ATPase in the native sarcomere), sequence (P85100 whole entry partner): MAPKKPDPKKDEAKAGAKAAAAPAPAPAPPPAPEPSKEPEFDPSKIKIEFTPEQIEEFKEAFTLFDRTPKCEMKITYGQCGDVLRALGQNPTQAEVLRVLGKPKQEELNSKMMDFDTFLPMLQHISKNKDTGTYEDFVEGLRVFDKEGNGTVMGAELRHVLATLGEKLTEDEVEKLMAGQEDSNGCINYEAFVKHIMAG
bovine cardiac myofibrils (full-length cardiac myosin ATPase in the native sarcomere), sequence (Q3SZE5 whole entry partner): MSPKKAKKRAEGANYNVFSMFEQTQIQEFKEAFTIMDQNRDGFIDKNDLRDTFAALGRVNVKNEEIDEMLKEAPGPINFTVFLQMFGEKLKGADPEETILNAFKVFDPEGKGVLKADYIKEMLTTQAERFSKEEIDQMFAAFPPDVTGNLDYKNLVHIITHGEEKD

CDMF75 IC15	IC50	Compound
400 nM	1200 nM	Cn1nccc1C(=O)N[C@@H]1CCc2cc(-c3noc(C4(C)CC4)n3)ccc21 [Compound 459, (R)-1-methyl-N-(5-(5-(1-methylcyclopropyl)-1,2,4-oxadiazol-3-yl)-2,3-dihydro-1H-inden-1-yl)-1H-pyrazole-5-carboxamide]
300 nM	1000 nM	CCc1nc(-c2ccc3c(c2F)CC[C@H]3NC(=O)c2cnn(C)c2)no1 [Compound 562, (R)-N-(5-(5-ethyl-1,2,4-oxadiazol-3-yl)-4-fluoro-2,3-dihydro-1H-inden-1-yl)-1-methyl-1H-pyrazole-4-carboxamide]
4400 nM	16600 nM	CCOC(=O)C(C)c1nc(-c2ccc3c(c2)CC[C@H]3NC(=O)c2nnn(C)n2)no1 (stereo partly drawn) [Compound 504, ethyl 2-(3-((R)-1-(2-methyl-2H-tetrazole-5-carboxamido)-2,3-dihydro-1H-inden-5-yl)-1,2,4-oxadiazol-5-yl)propanoate]
600 nM	2600 nM	Nc1cc(C(=O)NC2CCc3cc(-c4noc(C(F)F)n4)ccc32)ccn1 (centres unmarked) [Compound 99, 2-amino-N-(5-(5-(difluoromethyl)-1,2,4-oxadiazol-3-yl)-2,3-dihydro-1H-inden-1-yl)isonicotinamide]
700 nM	2400 nM	[2H]C([2H])([2H])c1noc(-c2ccc3c(c2)CC[C@H]3NC(=O)c2ccnn2C)n1 [Compound 273, (R)-1-methyl-N-(5-(3-(methyl-d3)-1,2,4-oxadiazol-5-yl)-2,3-dihydro-1H-inden-1-yl)-1H-pyrazole-5-carboxamide]
1300 nM	5200 nM	CCOC(=O)N[C@@H]1CCc2cc(-c3noc(C(F)F)n3)ccc21 [Compound 278, ethyl (R)-(5-(5-(difluoromethyl)-1,2,4-oxadiazol-3-yl)-2,3-dihydro-1H-inden-1-yl)carbamate]
500 nM	1700 nM	CCc1noc(-c2ccc3c(c2)CC[C@H]3NC(=O)c2nnn(C)n2)n1 [Compound 256, (R)-N-(5-(3-ethyl-1,2,4-oxadiazol-5-yl)-2,3-dihydro-1H-inden-1-yl)-2-methyl-2H-tetrazole-5-carboxamide]
500 nM	1800 nM	Cc1ncc(C(=O)N[C@@H]2CCc3cc(-c4noc(C(F)F)n4)ccc32)s1 [Compound 676, (R)-N-(5-(5-(difluoromethyl)-1,2,4-oxadiazol-3-yl)-2,3-dihydro-1H-inden-1-yl)-2-methylthiazole-5-carboxamide]
200 nM	700 nM	Cc1ncoc1C(=O)N[C@@H]1CCc2cc(-c3noc(C4CCC4)n3)ccc21 [Compound 409, (R)-N-(5-(5-cyclobutyl-1,2,4-oxadiazol-3-yl)-2,3-dihydro-1H-inden-1-yl)-4-methyloxazole-5-carboxamide]
3900 nM	16200 nM	Cn1cc(C(=O)NC2CCc3cc(-c4noc(C(F)F)n4)ccc32)c(C(F)(F)F)n1 (centres unmarked) [Compound 40, N-(5-(5-(difluoromethyl)-1,2,4-oxadiazol-3-yl)-2,3-dihydro-1H-inden-1-yl)-1-methyl-3-(trifluoromethyl)-1H-pyrazole-4-carboxamide]
19300 nM	> 39200 nM	Cn1cnc(C(=O)NC2CCc3cc(-c4noc(C(F)F)n4)ccc32)n1 (centres unmarked) [Compound 118, N-(5-(5-(difluoromethyl)-1,2,4-oxadiazol-3-yl)-2,3-dihydro-1H-inden-1-yl)-1-methyl-1H-1,2,4-triazole-3-carboxamide]
7600 nM	> 39200 nM	Cc1cc(C(=O)NC2CCc3cc(-c4ncc(C)o4)ccc32)ccn1 (centres unmarked) [Compound 140, 2-methyl-N-(5-(5-methyloxazol-2-yl)-2,3-dihydro-1H-inden-1-yl)isonicotinamide]
300 nM	900 nM	CCc1nc(-c2cc(O)c3c(c2)CC[C@H]3NC(=O)c2cnn(C)c2)no1 [Compound 609, N-[(1R)-5-(5-ethyl-1,2,4-oxadiazol-3-yl)-7-hydroxy-2,3-dihydro-1H-inden-1-yl]-1-methyl-1H-pyrazole-4-carboxamide]
1400 nM	5600 nM	COCc1nc(-c2ccc3c(c2)CC[C@H]3NC(=O)c2cccc(C(C)O)c2)no1 (stereo partly drawn) [Compound 722, 3-(1-hydroxyethyl)-N-((R)-5-(5-(methoxymethyl)-1,2,4-oxadiazol-3-yl)-2,3-dihydro-1H-inden-1-yl)benzamide]
1600 nM	4900 nM	Cc1nc(-c2ccc3c(c2)CCC3NC(=O)c2ocnc2C2CC2)no1 (centres unmarked) [Compound 52, 4-cyclopropyl-N-(5-(5-methyl-1,2,4-oxadiazol-3-yl)-2,3-dihydro-1H-inden-1-yl)oxazole-5-carboxamide]
500 nM	1800 nM	COC(=O)N[C@@H]1COc2cc(-c3noc(C4CC4)n3)ccc21 [Compound 348, methyl (S)-(6-(5-cyclopropyl-1,2,4-oxadiazol-3-yl)-2,3-dihydrobenzofuran-3-yl)carbamate]
500 nM	1500 nM	Cc1cc(-c2ccc3c(c2)OC[C@H]3NC(=O)c2ocnc2C)no1 [Compound 429, (S)-4-methyl-N-(6-(5-methylisoxazol-3-yl)-2,3-dihydrobenzofuran-3-yl)oxazole-5-carboxamide]
4500 nM	22900 nM	CCc1nc(-c2ccc3c(c2)CC[C@H]3NC(=O)c2cn(C)nn2)no1 [Compound 616, (R)-N-(5-(5-ethyl-1,2,4-oxadiazol-3-yl)-2,3-dihydro-1H-inden-1-yl)-1-methyl-1H-1,2,3-triazole-4-carboxamide]
2100 nM	10200 nM	CC(=O)N[C@@H]1CCc2cc(-c3noc(C(F)F)n3)ccc21 [Compound 286, (R)-N-(5-(5-(difluoromethyl)-1,2,4-oxadiazol-3-yl)-2,3-dihydro-1H-inden-1-yl)acetamide]
700 nM	2600 nM	CCc1nc(-c2ccc3c(c2)CC[C@H]3NC(=O)c2cccc(C(O)CO)c2)no1 (stereo partly drawn) [Compound 700, 3-(1,2-dihydroxyethyl)-N-((R)-5-(5-ethyl-1,2,4-oxadiazol-3-yl)-2,3-dihydro-1H-inden-1-yl)benzamide]
300 nM	900 nM	Cc1nocc1C(=O)N[C@@H]1CCc2cc(-c3noc(C(F)F)n3)ccc21 [Compound 677, (R)-N-(5-(5-(difluoromethyl)-1,2,4-oxadiazol-3-yl)-2,3-dihydro-1H-inden-1-yl)-3-methylisoxazole-4-carboxamide]
6700 nM	30900 nM	CN(C)C(=O)N[C@@H]1CCc2cc(-c3noc(C(F)F)n3)ccc21 [Compound 299, (R)-3-(5-(5-(difluoromethyl)-1,2,4-oxadiazol-3-yl)-2,3-dihydro-1H-inden-1-yl)-1,1-dimethylurea]
1900 nM	10500 nM	CCc1nc(-c2ccc3c(c2)OC[C@H]3NC(=O)N2CC(O)C2)no1 [Compound 741, (S)-N-(6-(5-ethyl-1,2,4-oxadiazol-3-yl)-2,3-dihydrobenzofuran-3-yl)-3-hydroxyazetidine-1-carboxamide]
400 nM	1200 nM	Cc1ncoc1C(=O)N[C@@H]1CCc2cc(-c3noc(C(C)C)n3)ccc21 [Compound 393, (R)-N-(5-(5-isopropyl-1,2,4-oxadiazol-3-yl)-2,3-dihydro-1H-inden-1-yl)-4-methyloxazole-5-carboxamide]
3000 nM	14000 nM	COCCn1cc(C(=O)N[C@@H]2CCc3cc(-c4noc(C(C)C)n4)ccc32)cn1 [Compound 511, (R)-N-(5-(5-isopropyl-1,2,4-oxadiazol-3-yl)-2,3-dihydro-1H-inden-1-yl)-1-(2-methoxyethyl)-1H-pyrazole-4-carboxamide]
1900 nM	7800 nM	CCc1nc(-c2ccc3c(c2)CC[C@H]3NC(=O)c2cnn(C3CN(C(N)=O)C3)c2)no1 [Compound 481, (R)-1-(1-carbamoylazetidin-3-yl)-N-(5-(5-ethyl-1,2,4-oxadiazol-3-yl)-2,3-dihydro-1H-inden-1-yl)-1H-pyrazole-4-carboxamide]
1200 nM	4900 nM	Cc1cc(C(=O)NC2CCc3cc(-c4cc(C)on4)ccc32)ccn1 (centres unmarked) [Compound 137, 2-methyl-N-(5-(5-methylisoxazol-3-yl)-2,3-dihydro-1H-inden-1-yl)isonicotinamide]
6500 nM	29200 nM	O=C(N[C@@H]1CCc2cc(-c3noc(C4CCC4)n3)ccc21)c1nn[nH]n1 [Compound 505, (R)-N-(5-(5-cyclobutyl-1,2,4-oxadiazol-3-yl)-2,3-dihydro-1H-inden-1-yl)-2H-tetrazole-5-carboxamide]
